Paper PMC8556439, “Modeling the time course of ComX: towards molecular process control for Bacillus wild-type cultivations” (AMB Express, 2021)

How the values were obtained:
extracellular proteases = experiment: ComX extracellular degradation in cell-free supernatant of bioreactor cultivation; type: in vitro ADME, B. subtilis DSM 10T; conditions: spectinomycin 100 µg/mL, incubated 120 rpm, 37 °C, sampled 0-8 h, ComX bioassay, biological duplicates
Procedure: (§1) Due to the high complexity of ComX purification, the pheromone was measured with a bioassay based on the principle provided by Magnuson et al. ([1994]). Thereby, reporter strain CT2 (∆comX::kan; PsrfA-lacZ) can be used as an assay reagent and a ComX-dependent expression of lacZ can be determined by measuring the β-galactosidase activity with the Miller assay (Miller [1972]). The employed bioassay is further in line with a recently published method, provided by Dogsa et al. ([2021]). A detailed description of the working principle and further validation experiments are given in the supplementary information. In brief, a main culture of strain CT2 was inoculated with preculture II to a starting OD600 of 0.1 and incubated for 3 h at 120 rpm and 37 °C. […] Bnk values were measured using the respective sterile cultivation medium instead of sampled cell-free supernatant. The limit of detection (LOD) and limit of quantification (LOQ) was calculated from 20 samples using Eqs. […]
Cell-free supernatant was obtained from bioreactor cultivation with 40 g/L glucose by two centrifugation steps for 30 min at 4816 g and 4 °C (Heraeus X3R, Thermo Fisher Scientific GmbH, Braunschweig, Germany). […] Samples were taken after t = 0, 1, 2, 3, 4, 6 and 8 h and analyzed for ComX and peptidase activity and the ComX degradation rate in (MU/h) was calculated from the measured data.

PsrfA = conditions: ref Magnuson et al. [1994], Okada et al. [2005], [2007], Dogsa et al. [2021], cited from earlier work
Procedure: (§2) To allow for this optimization strategy, profound quantitative knowledge must be gathered as an initial step. This was done in the presented study regarding surfactin production and ComX pheromone progression, providing new insights into this crosstalk. Several bioreactor batch fermentations with different initial glucose concentrations were performed to illustrate different lengths of growth phases of B. subtilis DSM 10^ T. Thereby the general progression of ComX activity was consistent for all bioreactor set-ups, regardless of varying experimental set-ups. During exponential growth, an initi ...

[1] = type: physicochemical; conditions: pH 7
Procedure: as §1
(§3) For autodegradation studies, strain DSM 10^ T was additionally cultivated in 3000 mL shake flasks using MSM with 40 g/L glucose. […] The incubation was performed in biological duplicates for 24 h at 120 rpm and 37 °C and samples were taken regularly and analyzed for OD600, ComX and peptidase activity.

[2] = cited from earlier work
Procedure: The LC–MS analysis of extracellular ComX also confirmed degradation after reaching a peak during cultivation process, which was also detected by the bioassay (Additional file 1: Figure S2a). Resembling Henkel et al. ([2013]), experiments were performed with respect to (i) autodegradation, (ii) extracellular degradation and (iii) intracellular degradation (Fig. 1), to obtain deeper understanding of the degradation kinetics of ComX. […] Here, an increase in EACSP was initially observed and, after reaching a maximum, a slight downward trend was seen, which was also accompanied by calculated degradation rates. The highest modeled EACSP = 66.3 ∆A/(h·mL) was reached after 20.5 h, which is concomitant to the highest measured degradation rate after 16 h. […] However, to unveil a potential autodegradation effe ... || To allow for this optimization strategy, profound quantitative knowledge must be gathered as an initial step. This was done in the presented study regarding surfactin production and ComX pheromone progression, providing new insights into this crosstalk. Several bioreactor batch fermentations with different initial glucose concentrations were performed to illustrate different lengths of growth phases of B. subtilis DSM 10^ T. Thereby the general progression of ComX activity was consistent for all bioreactor set-ups, regardless of varying experimental set-ups. During exponential growth, an initi ...

[3] = system: B. subtilis BKK31700 (∆comX); experiment: ComX intracellular degradation: ComX deficient strain cultivated in spent medium; type: in vitro ADME; conditions: ComX bioassay, biological duplicates
Procedure: as §1, §3

[4] = ref Rangarajan and Clarke [2015]; cited from earlier work
Procedure: as §2

| Substance | ComX degradation rate (highest) (extracellular proteases; cell-free supernatant from bioreactor cultivation 40 g/L glucose taken after approximately 16 h) [MU/h] | ComX degradation rate (extracellular proteases; cell-free supernatant from bioreactor cultivation 40 g/L glucose taken after approximately 35 h) [MU/h] | ComX concentration at saturation of response (PsrfA) | EC50 (PsrfA; read-out: ComX concentration at half maximum response) [nM] | remaining ComX activity after 8 h of incubation (autodegradation study) [1] [MU] | heat stability of ComX (time stable) ([2]; at 80 °C, ref Magnuson et al. ([1994])) [h] | sensitivity of ComX to extracellular proteases ([2]; especially serine proteases, ref Spacapan et al. ([2018]) and Magnuson et al. ([1994])) | storage time after which a degradation effect was observed ([2]; purified ComX, storage, ref Dogsa et al. ([2021])) [days] | stability of ComX in acidic environments ([2]; ref Okada et al. [2007]) | ComX activity remaining after 24 h of cultivation (intracellular degradation study) ([3]; BKK31700 cells in spent filtered medium of DSM 23778, 4 g/L glucose added, 24 h, 120 rpm, 37 °C) [MU] | initial ComX activity at t0 (intracellular degradation study) ([3]; washed BKK31700 cells resuspended in spent filtered medium of DSM 23778, 4 g/L glucose added) [MU] | pH at which surfactin precipitation may occur [4] [pH] |
| --- | --- | --- | --- | --- | --- | --- | --- | --- | --- | --- | --- | --- |
| ADPITRQ WGD [ComX, quorum sensing pheromone of B. subtilis, farnesylated peptide secreted into culture supernatant; not purified, measured in supernatant] | 9.2 ± 2.1 | 8.4 ± 0.5 | around 10 nM | 3 to 4 | 251.1 ± 17.1 | 12 | sensitive to extracellular proteases | 100 | does not appear to be stable | 103.2 ± 11.4 | 96.5 ± 3.0 | – |
| surfactin | – | – | – | – | – | – | – | – | – | – | – | 5.0 to 6.0 |
